Reference: ChEMBL document CHEMBL3046365, “Insecticidal Activity of Pyridalyl: Acute and Sub-Acute Symptoms in Spodoptera litura Larvae” (2004)
Activity calls are given as the source filed them.

Key:
Spodoptera litura [1] = assay: Insecticidal activity against fifth-instar Spodoptera litura larvae assessed as mortality compound applied topically measured after 3 days; type: functional
Spodoptera litura [2] = assay: Insecticidal activity against fifth-instar Spodoptera litura larvae assessed as mortality compound applied topically measured after 2 days; type: functional
Spodoptera litura [3] = assay: Insecticidal activity against fifth-instar Spodoptera litura larvae assessed as inhibition of emergence as adult at 1.56 to 25 ng applied topically; type: functional, organism-based
Spodoptera litura [4] = assay: Insecticidal activity against fifth-instar Spodoptera litura larvae assessed as abnormal body shape at 1.56 to 25 ng applied topically; type: functional, organism-based
Spodoptera litura [5] = assay: Insecticidal activity against fifth-instar Spodoptera litura larvae assessed as mortality at 1.56 to 25 ng applied topically measured after 5 days; type: functional, organism-based
Spodoptera litura [6] = assay: Insecticidal activity against fifth-instar Spodoptera litura larvae assessed as inhibition of ecdysis at 1.56 to 25 ng applied topically measured after 5 days; type: functional, organism-based
Spodoptera litura [7] = assay: Insecticidal activity against fifth-instar Spodoptera litura larvae assessed as burn scar on the area where compound applied at 1.56 to 6.25 ng applied topically measured after 4 days; type: functional, organism-based
Spodoptera litura [8] = assay: Insecticidal activity against fifth-instar Spodoptera litura larvae assessed as mortality at 25 ng applied topically measured after 5 days; type: functional, organism-based
Spodoptera litura [9] = assay: Insecticidal activity against fifth-instar Spodoptera litura larvae at 1.56 to 25 ng applied topically measured up to 1 day; type: functional, organism-based
Spodoptera litura [10] = assay: Acute insecticidal activity against fifth-instar Spodoptera litura larvae assessed as decrease in body elasticity at 50 to 400 ng applied topically; type: functional, organism-based
Spodoptera litura [11] = assay: Acute insecticidal activity against fifth-instar Spodoptera litura larvae assessed as decrease in mobility at 50 to 400 ng applied topically; type: functional, organism-based
Spodoptera litura [12] = assay: Acute insecticidal activity against fifth-instar Spodoptera litura larvae assessed as decrease in vigor at 50 to 400 ng applied topically; type: functional, organism-based
Spodoptera litura [13] = assay: Acute insecticidal activity against fifth-instar Spodoptera litura larvae assessed as flaccid paralysis at 50 to 400 ng applied topically; type: functional, organism-based
Spodoptera litura [14] = assay: Acute insecticidal activity against fifth-instar Spodoptera litura larvae assessed as mortality at 50 ng applied topically measured after 6 hr; type: functional, organism-based
Spodoptera litura [15] = assay: Acute insecticidal activity against fifth-instar Spodoptera litura larvae assessed as mortality at 400 ng applied topically measured after 2 hr; type: functional
Spodoptera litura [16] = assay: Acute insecticidal activity against fifth-instar Spodoptera litura larvae assessed as mortality at 200 ng applied topically measured after 3 hr; type: functional
Spodoptera litura [17] = assay: Acute insecticidal activity against fifth-instar Spodoptera litura larvae assessed as mortality at 400 ng applied topically measured after 1 hr; type: functional, organism-based
Spodoptera litura [18] = assay: Acute insecticidal activity against fifth-instar Spodoptera litura larvae assessed as mortality at 200 ng applied topically measured after 1 hr; type: functional, organism-based
Spodoptera litura [19] = assay: Acute insecticidal activity against fifth-instar Spodoptera litura larvae assessed as mortality at 100 ng applied topically measured after 6 hr; type: functional
Spodoptera litura [20] = assay: Acute insecticidal activity against fifth-instar Spodoptera litura larvae assessed as mortality at 50 ng applied topically measured within 3 days; type: functional
Spodoptera litura [21] = assay: Insecticidal activity against fifth-instar Spodoptera litura larvae assessed as mortality compound applied topically measured after 1 day; type: functional

FC(F)(F)c1ccc(OCCCOc2c(Cl)cc(OCC=C(Cl)Cl)cc2Cl)nc1 [PYRIDALYL]
active: Activity (Spodoptera litura [3]) | inhibition (Spodoptera litura [4]) | inhibition (Spodoptera litura [5]) | Activity (Spodoptera litura [6]) | Activity (Spodoptera litura [7]) | Activity (Spodoptera litura [8]) | Activity (Spodoptera litura [10]) | Activity (Spodoptera litura [11]) | Activity (Spodoptera litura [12]) | Activity (Spodoptera litura [13]) | Activity (Spodoptera litura [17]) | Activity (Spodoptera litura [18])
100%: mortality (Spodoptera litura [15]) | mortality (Spodoptera litura [16]) | mortality (Spodoptera litura [19])
>50%: mortality (Spodoptera litura [20])
57.3 ng: LD50 (Spodoptera litura [21])
24.4 ng: LD50 (Spodoptera litura [1])
50.1 ng: LD50 (Spodoptera litura [2])
inactive: Activity (Spodoptera litura [9]) | Activity (Spodoptera litura [14])
